According to ChEMBL document CHEMBL4346657, “Anticancer activity, dual prooxidant/antioxidant effect and apoptosis induction profile of new bichalcophene-5-carboxamidines” (Eur J Med Chem, 2019):

Legend:
[1] = system: Panel NCI-60 (60 carcinoma cell lines); assay: Antiproliferative activity against human NCI60 cells assessed as growth inhibition after 48 hrs by sulforhodamine B assay; assay type: functional
[2] = system: NCI-H460; assay: Antiproliferative activity against human NCI-H460 cells assessed as growth inhibition after 48 hrs by sulforhodamine B assay; assay type: functional; conditions: NCI-H460, 48 h
[3] = system: HCT-116; assay: […] in CDK1 mRNA expression in human HCT116 cells at 100 nM after 6 hrs hrs by SYBR green dye-based qRT-PCR analysis relative to control; assay type: functional
[4] = system: KM12; assay: Antiproliferative activity against human KM12 cells assessed as growth inhibition after 48 hrs by sulforhodamine B assay; assay type: functional; conditions: KM12, 48 h
[5] = system: ACHN; assay: Antiproliferative activity against human ACHN cells assessed as growth inhibition after 48 hrs by sulforhodamine B assay; assay type: functional
[6] = system: OVCAR-5; assay: Antiproliferative activity against human OVCAR5 cells assessed as growth inhibition after 48 hrs by sulforhodamine B assay; assay type: functional; conditions: OVCAR-5, 48 h
[7] = system: BT-549; assay: Antiproliferative activity against human BT549 cells assessed as growth inhibition after 48 hrs by sulforhodamine B assay; assay type: functional; conditions: BT-549, 48 h
[8] = system: NCI-H522; assay: Antiproliferative activity against human NCI-H522 cells assessed as growth inhibition after 48 hrs by sulforhodamine B assay; assay type: functional; conditions: NCI-H522, 48 h
[9] = Haemolytic activity in human erythrocytes assessed as induction of hemolysis at 5 mM after 30 mins relative to H202; assay type: cell-based, Erythrocyte; conditions: read-out: Activity
[10] = system: HCT-15; assay: Antiproliferative activity against human HCT15 cells assessed as growth inhibition after 48 hrs by sulforhodamine B assay; assay type: functional; conditions: HCT-15, 48 h
[11] = system: MDA-MB-435; assay: Antiproliferative activity against human MDA-MB-435 cells assessed as growth inhibition after 48 hrs by sulforhodamine B assay; assay type: functional; conditions: MDA-MB-435, 48 h
[12] = system: HCT-116; assay: Induction of apoptosis in human HCT116 cells assessed as increase in p53 mRNA expression at 100 nM after 6 hrs hrs by SYBR green dye-based qRT-PCR analysis relative to control; assay type: functional
[13] = system: Hs-578T; assay: Antiproliferative activity against human Hs578T cells assessed as growth inhibition after 48 hrs by sulforhodamine B assay; assay type: functional
[14] = system: PC-3; assay: Antiproliferative activity against human PC3 cells assessed as growth inhibition after 48 hrs by sulforhodamine B assay; assay type: functional; conditions: PC-3, 48 h
[15] = system: Erythrocyte; assay: Haemolytic activity in human erythrocytes assessed as induction of hemolysis at 0.625 mM after 30 mins relative to H202; assay type: cell-based; conditions: erythrocyte, 0.5 h, 625 µM
[16] = system: SNB-75; assay: Antiproliferative activity against human SNB75 cells assessed as growth inhibition after 48 hrs by sulforhodamine B assay; assay type: functional; conditions: SNB-75, 48 h
[17] = system: WI-38; assay: Cytotoxicity activity against human WI38 cells assessed as reduction in cell viability measured after 48 hrs by MTT assay; assay type: cell-based; conditions: WI-38, 48 h
[18] = system: SK-MEL-2; assay: Antiproliferative activity against human SK-MEL-2 cells assessed as growth inhibition after 48 hrs by sulforhodamine B assay; assay type: functional; conditions: SK-MEL-2, 48 h
[19] = system: NCI-H226; assay: Antiproliferative activity against human NCI-H226 cells assessed as growth inhibition after 48 hrs by sulforhodamine B assay; assay type: functional; conditions: NCI-H226, 48 h
[20] = system: OVCAR-3; assay: Antiproliferative activity against human OVCAR3 cells assessed as growth inhibition after 48 hrs by sulforhodamine B assay; assay type: functional; conditions: OVCAR-3, 48 h
[21] = system: A498; assay: Antiproliferative activity against human A498 cells assessed as growth inhibition after 48 hrs by sulforhodamine B assay; assay type: functional; conditions: A498, 48 h
[22] = system: CAKI-1; assay: Antiproliferative activity against human CAKI-1 cells assessed as growth inhibition after 48 hrs by sulforhodamine B assay; assay type: functional; conditions: CAKI-1, 48 h
[23] = system: M14; assay: Antiproliferative activity against human M14 cells assessed as growth inhibition after 48 hrs by sulforhodamine B assay; assay type: functional; conditions: M14, 48 h
[24] = system: MDA-MB-231; assay: Antiproliferative activity against human MDA-MB-231/ATCC cells assessed as growth inhibition after 48 hrs by sulforhodamine B assay; assay type: functional; conditions: MDA-MB-231, 48 h
[25] = system: COLO 205; assay: Antiproliferative activity against human COLO205 cells assessed as growth inhibition after 48 hrs by sulforhodamine B assay; assay type: functional; conditions: COLO 205, 48 h
[26] = system: 786-0; assay: Antiproliferative activity against human 786-0 cells assessed as growth inhibition after 48 hrs by sulforhodamine B assay; assay type: functional; conditions: 786-0, 48 h
[27] = system: UO-31; assay: Antiproliferative activity against human UO31 cells assessed as growth inhibition after 48 hrs by sulforhodamine B assay; assay type: functional; conditions: UO-31, 48 h
[28] = system: K562; assay: Antiproliferative activity against human K562 cells assessed as growth inhibition after 48 hrs by sulforhodamine B assay; assay type: functional, cell-based; conditions: K562, 48 h, read-out: IC50
[29] = system: IGROV-1; assay: Antiproliferative activity against human IGROV1 cells assessed as growth inhibition after 48 hrs by sulforhodamine B assay; assay type: functional; conditions: IGROV-1, 48 h
[30] = system: SK-MEL-28; assay: Antiproliferative activity against human SK-MEL-28 cells assessed as growth inhibition after 48 hrs by sulforhodamine B assay; assay type: functional; conditions: SK-MEL-28, 48 h
[31] = system: SF-295; assay: Antiproliferative activity against human SF295 cells assessed as growth inhibition after 48 hrs by sulforhodamine B assay; assay type: functional; conditions: SF-295, 48 h
[32] = system: SK-MEL-5; assay: Antiproliferative activity against human SK-MEL-5 cells assessed as growth inhibition after 48 hrs by sulforhodamine B assay; assay type: functional; conditions: SK-MEL-5, 48 h
[33] = system: SN12C; assay: Antiproliferative activity against human SN12C cells assessed as growth inhibition after 48 hrs by sulforhodamine B assay; assay type: functional
[34] = system: SNB-19; assay: Antiproliferative activity against human SNB19 cells assessed as growth inhibition after 48 hrs by sulforhodamine B assay; assay type: functional; conditions: SNB-19, 48 h
[35] = system: NCI-H322M; assay: Antiproliferative activity against human NCI-H322M cells assessed as growth inhibition after 48 hrs by sulforhodamine B assay; assay type: functional
[36] = Antioxidant activity assessed as ABTS radical scavenging activity by spectrophotometric method relative to ascorbic acid; assay type: functional
[37] = Selectivity index, ratio of IC50 for human WI38 cells to GI50 for human NCI60 cells
[38] = system: RXF 393; assay: Antiproliferative activity against human RXF393 cells assessed as growth inhibition after 48 hrs by sulforhodamine B assay; assay type: functional; conditions: RXF 393, 48 h
[39] = system: CCRF-CEM; assay: Antiproliferative activity against human CCRF-CEM cells assessed as growth inhibition after 48 hrs by sulforhodamine B assay; assay type: functional
[40] = system: HL-60(TB); assay: Antiproliferative activity against human HL-60(TB) cells assessed as growth inhibition after 48 hrs by sulforhodamine B assay; assay type: functional; conditions: HL-60, 48 h
[41] = system: NCI/ADR-RES; assay: Antiproliferative activity against human NCI-ADR-RES cells assessed as growth inhibition after 48 hrs by sulforhodamine B assay; assay type: functional
[42] = system: EKVX; assay: Antiproliferative activity against human EKVX cells assessed as growth inhibition after 48 hrs by sulforhodamine B assay; assay type: functional

COc1ccc2cc(-c3ccc(-c4ccc(C(=N)N)s4)s3)ccc2c1
GI50 [1]: 3090 nM
LC50 [1]: 38000 nM
TGI [1]: 7940 nM
GI50 [2]: 1940 nM
fold change (FC) [3]: 0.93
GI50 [4]: 2060 nM
GI50 [5]: 3060 nM
GI50 [6]: 2110 nM
GI50 [7]: 17600 nM
GI50 [8]: 1920 nM
hemolysis at 0.5 h, 5000 µM [9]: 11.3%
GI50 [10]: 1890 nM
GI50 [11]: 2010 nM
fold change (FC) [12]: 1.03
GI50 [13]: 16600 nM
GI50 [14]: 2130 nM
Activity [15]: Non-Toxic
GI50 [16]: 10400 nM
IC50 [17]: 80500 nM
GI50 [18]: 2660 nM
GI50 [19]: 23600 nM
GI50 [20]: 2420 nM
GI50 [21]: 14300 nM
GI50 [22]: 8290 nM
GI50 [23]: 4000 nM
GI50 [24]: 2460 nM
GI50 [25]: 2040 nM
GI50 [26]: 2040 nM
GI50 [27]: 2880 nM
IC50 [28]: 1180 nM
GI50 [29]: 2270 nM
GI50 [30]: 2500 nM
GI50 [31]: 5070 nM
GI50 [32]: 16100 nM
GI50 [33]: 2120 nM
GI50 [34]: 2130 nM
GI50 [35]: 2020 nM
fold change (FC) [36]: 0.6
Selectivity Index [37]: 26
GI50 [38]: 7220 nM
GI50 [39]: 1510 nM
GI50 [40]: 1840 nM
GI50 [41]: 2290 nM
GI50 [42]: 2140 nM

N=C(N)c1ccc(-c2ccc(-c3ccccc3)o2)o1
GI50 [1]: 2400 nM
LC50 [1]: 22400 nM
TGI [1]: 6910 nM
GI50 [2]: 2450 nM
fold change (FC) [3]: 0.97
GI50 [4]: 2610 nM
GI50 [5]: 2560 nM
GI50 [6]: 2700 nM
GI50 [7]: 4130 nM
GI50 [8]: 1940 nM
hemolysis at 0.5 h, 5000 µM [9]: 30.1%
GI50 [10]: 1160 nM
GI50 [11]: 990 nM
fold change (FC) [12]: 0.95
GI50 [13]: 3810 nM
GI50 [14]: 2640 nM
Activity [15]: Non-Toxic
GI50 [16]: 1600 nM
IC50 [17]: 68700 nM
GI50 [18]: 2250 nM
GI50 [19]: 5700 nM
GI50 [20]: 3130 nM
GI50 [21]: 3030 nM
GI50 [22]: 3400 nM
GI50 [23]: 1620 nM
GI50 [24]: 2040 nM
GI50 [25]: 1780 nM
GI50 [26]: 1740 nM
GI50 [27]: 1540 nM
IC50 [28]: 660 nM
GI50 [29]: 2890 nM
GI50 [30]: 1900 nM
GI50 [31]: 1810 nM
GI50 [32]: 1750 nM
GI50 [33]: 3120 nM
GI50 [34]: 3010 nM
GI50 [35]: 2120 nM
fold change (FC) [36]: 0.4
Selectivity Index [37]: 28.6
GI50 [38]: 2330 nM
GI50 [39]: 3580 nM
GI50 [40]: 2180 nM
GI50 [41]: 2820 nM
GI50 [42]: 2340 nM

N=C(N)c1ccc(-c2ccc(-c3ccc(Cl)cc3)o2)o1
GI50 [1]: 1810 nM
LC50 [1]: 12600 nM
TGI [1]: 3720 nM
GI50 [2]: 1890 nM
fold change (FC) [3]: 0.93
GI50 [4]: 1630 nM
GI50 [5]: 1890 nM
GI50 [6]: 1820 nM
GI50 [7]: 5920 nM
GI50 [8]: 1730 nM
hemolysis at 0.5 h, 5000 µM [9]: 70.7%
GI50 [10]: 1520 nM
GI50 [11]: 1380 nM
fold change (FC) [12]: 1.09
GI50 [13]: 2000 nM
GI50 [14]: 1810 nM
Activity [15]: Non-Toxic
GI50 [16]: 1500 nM
IC50 [17]: 10100 nM
GI50 [18]: 2080 nM
GI50 [19]: 2190 nM
GI50 [20]: 1830 nM
GI50 [21]: 2120 nM
GI50 [22]: 1690 nM
GI50 [23]: 1850 nM
GI50 [24]: 2010 nM
GI50 [25]: 1830 nM
GI50 [26]: 1850 nM
GI50 [27]: 1750 nM
IC50 [28]: 1370 nM
GI50 [29]: 1770 nM
GI50 [30]: 1830 nM
GI50 [31]: 1830 nM
GI50 [32]: 1810 nM
GI50 [33]: 1900 nM
GI50 [34]: 1860 nM
GI50 [35]: 1670 nM
fold change (FC) [36]: 0.2
Selectivity Index [37]: 5.5
GI50 [38]: 1820 nM
GI50 [39]: 1960 nM
GI50 [40]: 1870 nM
GI50 [41]: 1800 nM
GI50 [42]: 1500 nM
